Measurements from patent US6835731B2, “Chemokine receptor binding heterocyclic compounds” (AnorMED, Inc., priority 2000, dated 2004).

Columns and labels:
Format in all cases: cell-based
[1] = tested on: HIV-1 BaL (CCR5 using); experiment: Inhibition of HIV-1 (BaL) replication in PBMC's; conditions: Human immunodeficiency virus 1, BAL, PHA-stimulated PBMC's, viral p24 antigen expression
Protocol: Assay for Inhibition of HIV-1 (BaL) Replication in PBMC's. When compounds of the current invention are tested for inhibition of HIV-1 BaL (CCR5 using) replication in PHA-stimulated PBMC's (peripheral blood mononuclear cells) using viral p24 antigen expression (De […] et al. Antimicrob. Agents Chemother. 1994, 38, 668-674; Schols et al. J. Exp. Med., 1997, 186, 1383-1388), all show inhibition.

[2] = tested on: SDF-1α induced Ca flux in SUP-T1 cells; experiment: Inhibition of chemokine (SDF-1α) induced Ca flux measured on a FLIPR; conditions: Homo sapiens, at 20 μg/mL
Protocol: Inhibition of Chemokine Induced Ca Flux Measured on a FLIPR (Molecular Devices) Loading dye: Fluo-3, AM (Molecular Probes F-1241) is dissolved in anhydrous DMSO and stored frozen in aliquots. To increase the solubility of the dye in the loading medium, 10% (w/v) pluronic acid (Molecular Probes F-127) is added to the Fluo-3 stock solution immediately before use. buffer+0.2% BSA, pH 7.4. HBSS 10× [(w/o phenol red and sodium bicarbonate (Gibco 14 065-049)]; Hepes buffer 1M (Gibco 15 630-056), BSA (Sigma A3675). The flux buffer is vacuum-filtered and stored refrigerated for a maximum of 5 days. Before use in the experiment, the buffer is warmed at 37° C. in a waterbath. The test compounds were diluted in flux buffer at the desired concentration and added to 4 wells of a black microplate (4 parallel measurements per compound). The following control wells were used: 100% response control (no inhibition), flux buffer was added; 100% inhibition control: chemokine was added at 5-times the concentration required to induce a Ca flux. The chemokines are diluted in flux buffer to concentrations that are 4-fold higher than the desired concentrations required for stimulation of the cells (i.e. 2.5 nM for SDF-1α and 0.6 nM for RANTES). The chemokines were added to untreated 96-well Sero well compound plates (International Medical, Sterilin code 611F96). In the negative control well's (baseline monitoring), flux buffer is added instead of chemokine. As a positive control to check for dye loading efficiency, 20 μM digitonin (final concentration) was also included. The agonist plate was incubated in the FLIPR (37° C.) for 15-30 min. Cell Loading Protocol for Measuring Inhibition of SDF-1α Induced Ca Flux in SUP-T1 Cells. SUP-T1 cells were centrifuged at room temperature (RT) and re-suspended in loading medium (RPMI-1640 containing 2% FBS and 4 μM Fluo-3, AM). The cells were incubate at room temperature for 45 min. then washed twice in flux buffer then incubated in flux buffer at room temperature for 10 min. The cells were centrifuged and re-suspended in flux buffer at a density of 3×10^6 cells per mL. A 100 μL aliquot of the cell suspension (3×10^5 cells) was added to each well of a black microplate (Costar 3603), which already contains 50 μL of a solution of the test compound (at concentrations that are 3-fold higher than the desired final compound concentrations). The microplate is then gently centrifuged at room temperature. Homogeneous spreading of the cells on the bottom of the microplate wells was then confirmed with a microscope and the microplate was incubated in the FLIPR (37° C.) for 10 min. prior to testing. The FLIPR settings (camera exposure time and laser power) are adjusted to obtain initial fluorescence values between 8,000 and 10,000 units. After monitoring a 20 second-baseline, the agonist (chemokine) (50 μL) is added by automatic pipettor with black pipette tips. Fluorescence is measured simultaneously in all wells of the microplate every 2 seconds (first 2 min) and thereafter every 6 seconds (additional 2 min). The average ca-flux measured in each set of 4 identical wells (one test compound) was calculated by the FLIPR software. The compounds of the current invention are tested for inhibition of SDF-1α induced Ca flux in SUP-T1 cells using the method described above.

[3] = tested on: HIV-1 NL4.3 (or IIIB, CXCR4 using); experiment: Inhibition of HIV-1 (NL4.3) replication in MT-4 cells; conditions: Human immunodeficiency virus 1, IIIB, MT4, 120 h, MTT viability after 5 days
Protocol: Assay for Inhibition of HIV-1 (NL4.3) Replication in MT-4 Cells. Inhibition of HIV-1 NL4.3 (or IIIB, CXCR4 using) replication assays were performed as previously described (Bridger et al. J. Med. Chem. 1999, 42, 3971-3981; De […] et al. Proc. Natl. Acad. Sci, 1992, 89, 5286-5290; De […] et al. Antimicrob. Agents Chemother. 1994, 38, 668-674; Bridger et al. J. Med. Chem. 1995, 38, 366-378; Schols et al. J. Exp. Med., 1997, 186, 1383-1388). Anti-HIV activity and cytotoxicity measurements were carried out in parallel. They were based on the viability of MT-4 cells that had been infected with HIV in the presence of various concentrations of the test compounds. After the MT-4 cells were allowed to proliferate for 5 days, the number of viable cells was quantified by a tetrazolium-based colorimetric 3-(4,5-dimethylthiazol-2-yl)-2,5-diphenyltetrazolium bromide (MTT) procedure in 96-well microtrays. In all of these assays, viral input (viral multiplicity of infection, MOI) was 0.01, or 100 times the 50% cell culture infective dose (CCID50). The EC50 was defined as the concentration required to protect 50% of the virus-infected cells against viral cytopathicity. When compounds of the current invention are tested for inhibition of HIV-1 NL4.3 or IIIB replication in MT-4 cells, all show inhibition.

| Compound | EC50 [1] | EC50 [3] | inhibition at 20 µg/mL [2] |
| --- | --- | --- | --- |
| O=S(=O)(NCc1ccccn1)c1ccc(CN(Cc2nc3ccccc3[nH]2)C2CCCc3cccnc32)cc1 (centres unmarked) [Example 11, 4-{[(1 H-Benzimidazol-2-ylmethyl)-(5,6,7,8-tetrahydro-quinolin-8-yl)-amino]-methyl}-N-pyridin-2-ylmethyl-benzenesulfonamide] | < 20 µg/mL | < 20 µg/mL | > 20% |
| O=S(=O)(Nc1ccc(CN(Cc2nc3ccccc3[nH]2)C2CCCc3cccnc32)cc1)c1ccccn1 (centres unmarked) [Example 53, Pyridine-2-sulfonic acid (4-{[(1H-benzoimidazol-2-ylmethyl)-(5,6,7,8-tetrahydro-quinolin-8-yl)-amino]-methyl}-phenyl)-amide] | < 20 µg/mL | < 20 µg/mL |  |
| O=C(NCc1ccc(CNC2CCCc3cccnc32)cc1)c1ccccn1 (centres unmarked) [Example 16, Pyridine-2-carboxylic acid 4-[(5,6,7,8-tetrahydro-quinolin-8-ylamino)-methyl]-benzeylamide] | < 20 µg/mL |  |  |
| O=C(Nc1ccccn1)c1ccc(CN(Cc2nc3ccccc3[nH]2)C2CCCc3cccnc32)cc1 (centres unmarked) [Example 2, 4-{[(1 H-Benzimidazol-2-ylmethyl)-(5,6,7,8-tetrahydroquinolin-8-yl)amino]-methyl}-N-pyridin-2-yl-benzamide] | < 20 µg/mL | < 20 µg/mL | > 20% |
| O=S(=O)(NCc1ccc(CN(Cc2nc3ccccc3[nH]2)C2CCCc3cccnc32)cc1)c1ccccn1 (centres unmarked) [Example 48, Pyridine-2-sulfonic Acid 4-{[(1 H-benzoimidazol-2-ylmethyl)-(5,6,7,8-tetrahydro-quinolin-8-yl)-amino]-methyl}-benzylamide] | < 20 µg/mL | < 20 µg/mL | > 20% |

More lines, main results first:

| EC50 [1] | EC50 [3] | Compound | inhibition at 20 µg/mL [2] |
| --- | --- | --- | --- |
| < 20 µg/mL | < 20 µg/mL | O=C(NCc1ccccn1)c1ccc(CN(Cc2nc3ccccc3[nH]2)C2CCCc3cccnc32)cc1 (centres unmarked) [Example 4, 4-{[(1 H-Benzimidazol-2-ylmethyl)-(5,6,7,8-tetrahydro-quinolin-8-yl)-amino]-methyl}-N-pyridin-2-ylmethyl-benzamide] | > 20% |
|  | < 20 µg/mL | O=C(Nc1ccc(CN(Cc2nc3ccccc3[nH]2)C2CCCc3cccnc32)cc1)c1ccccn1 (centres unmarked) [Example 45, pyridine-2-carboxylic acid (4-{[(1 H-benzoimidazol-2-ylmethyl)-(5,6,7,8-tetrahydro-quinolin-8-yl)-amino]-methyl}-phenyl)-amide] | > 20% |
| < 20 µg/mL | < 20 µg/mL | O=C(NCc1ccc(CN(Cc2nc3ccccc3[nH]2)C2CCCc3cccnc32)cc1)c1ccccn1 (centres unmarked) [Example 17, Pyridine-2-carboxylic Acid 4-{[(1 H-benzimidazol-2-ylmethyl)-(5,6,7,8-tetrahydro-quinolin-8-yl)-amino]-methyl}-benzylamide] | > 20% |
